Test results published in US20170114025A1, “METHODS FOR INHIBITING NECROPTOSIS” (Catalyst Therapeutics Pty Ltd, priority 2014, published 2017).
Where two headings read alike, the source gives them in different places.

Experiments:
U937 cells = test: Counter screen: cell viability without TSQ cocktail (off target effect); type: cell-based; settings: U937 without TSQ cocktail
Description: In parallel, all compounds are tested for their ability to affect cell viability. The same U937 cells are treated with compound in DMSO without the TSQ cocktail. This counter screen enables evaluation of off-target effects. In this case gain, cell viability is measured by flow cytometry after PI staining.

[1] = target: T1, mouse MLKL(179-464) pseudokinase domain (Mus musculus, UniProt Q9D2Y4); test: STD NMR nucleotide competition, mouse MLKL; type: binding; settings: 200 μM compound, 200 μM nucleotide, 2 μM mouse MLKL(179-464)
T1 construct: made in house; host or cells: Sf21 insect cells
T1 sequence (Q9D2Y4 179-464 isoform Q9D2Y4-2): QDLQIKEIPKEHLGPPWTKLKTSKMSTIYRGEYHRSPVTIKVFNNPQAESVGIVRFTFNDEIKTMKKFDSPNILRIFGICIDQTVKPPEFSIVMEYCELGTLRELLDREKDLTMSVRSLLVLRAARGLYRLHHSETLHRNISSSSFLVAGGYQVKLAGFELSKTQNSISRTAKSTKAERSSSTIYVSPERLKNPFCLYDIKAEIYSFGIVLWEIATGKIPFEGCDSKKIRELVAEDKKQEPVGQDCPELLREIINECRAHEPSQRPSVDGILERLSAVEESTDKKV
Description: Nucleotides were dissolved in NMR buffer (20 mM HEPES, pH 7.5, 200 mM NaCl, 90% D2O, 10% H2O) at a final concentration of 200 μM in each sample of STD experiments. Three different samples were prepared for each nucleotide: (1) ATP or ADP with protein buffer added as equivalent volume of protein containing samples (2) ATP or ADP with MLKL pseudokinase domain at a final concentration of 2 μM (3) ATP or ADP with MLKL pseudokinase domain (2 μM) with test compound at 200 μM. […] Saturation of the protein resonances was achieved by a 4 s train of Gaussian pulses centred at −0.5 ppm. For the reference spectra, a similar saturation pulse was applied at a frequency centred 20,000 Hz off-resonance. A 15 ms T2-spin-lock period was employed before acquisition to allow the residual protein signal to decay. NMR data were processed in TOPSPIN version 3.2 (Bruker BioSpin).

wild type U937 cells = test: Cell death assay, TSQ-induced necroptosis in U937 cells (PI, flow cytometry); type: cell-based, human; settings: for IC50: Homo sapiens
From the text: Mouse dermal fibroblasts (MDFs) were isolated from three MlkI^−/− mice and three congenic wild type mice and then immortalized by SV40 large T antigen to generate three biologically independent cell lines, as described in Murphy J M, et al. (2013), Immunity 39(3):443-453. Immortalized MDFs were similarly prepared from three Ripk3^−/− mice and congenic wild type mice. MDFs and HEK293T were maintained in Dulbecco's modified Eagle's medium (DMEM) supplemented with 8-10% v/v fetal calf serum (FCS), and 5 μg/mL puromycin for lines stably transduced with inducible expression constructs for MLKL. U937 cells were cultured in RPMI1640 supplemented with 8% v/v FCS. Cell death assays were carried out in 24 well plates, seeding 1×10^5 cells per well. Cells attached over 4 h in the presence of 10 ng/mL doxycycline or 20 ng/mL were then treated with assorted combinations of Necrostatin (50 μM) and Q-VD-OPh (5 μM) 30 min prior to addition of TNF (100 ng/mL) and Smac mimetic (500 nM). After 24 h for MDF cells or 48 h for U937 cells, cells were harvested and PI positive cells (1 μg/mL) quantified using a BD FACSCalibur flow cytometer.

[2] = test system: MLKL translocation in MDFs; test: Fractionation and Blue Native PAGE, MLKL membrane translocation; type: cell-based, mouse; settings: TSQ up to 6 hours, 1 μM test compound, anti-MLKL blots of Blue-Native PAGE
Description: MDFs were seeded in 6 well plates (5×10^5 per well) and allowed to attach overnight. Cells were stimulated with TSQ for up to 6 hours in the presence of 1 μM test compound or DMSO control. Cells were harvested by scraping, washed once in PBS and permeabilized in buffer (20 mM Hepes (pH 7.5), 100 mM KCl, 2.5 mM MgCl2, and 100 mM sucrose) containing 0.025% digitonin (BIOSYNTH, Staad, Switzerland) and supplemented with EDTA-free Complete protease inhibitor cocktail (Roche), 2 μM N-ethyl maleimide, and phosphatase inhibitors (5 mM β-glycerophosphate, 1 mM Na Molybdate, 1 mM Na Pyrophosphate and 100 μM Na Fluoride). Permeabilization was confirmed by trypan blue uptake, and cytosolic and crude membrane fractions were separated by centrifugation at 11,000×g for 5 min. Digitonin was added to the cytoplasmic fraction to a final concentration of 1% and the crude membrane fraction was further solubilized in permeabilization buffer+1% digitonin and incubated on ice for 20 min. Crude membrane suspension was centrifuged at 11,000×g for 5 min and the supernatant loaded alongside cytoplasmic fraction on 4-16% Bis-Tris Native PAGE gel (LifeTechnologies). […] MLKL containing complexes were detected by anti-MLKL (3H1) Western blotting as described above.

[3] = test system: U937 human histiocytic leukemia cell line; test: Screening for inhibition of TSQ induced necroptosis, 96 well plate format; type: cell-based; settings: U-937, 48 h
Description: Screening Compounds for Inhibition of TSQ Induced Necroptosis, 96 Well Plate Format.
U937 human histiocytic leukemia cell line.
35,000 per well in 120 μL of media, counted and plated immediately prior to addition of inhibitor and death stimuli. Final well volume of 150 μL after addition of compounds and death stimuli
HTRPMI (WEHI Media kitchen, contains L-Glutamine and penicillin, streptomycin)—supplemented with 7.4% v/v FCS (Gibco, Precision Plus. Lot #1221437)
48 hours following addition of compounds and death stimuli
DMSO Final Concentration (% v/v): 0.2%
Compounds that are in the Death Stimulation Cocktail and their Final Concentrations: • hTNF-Fc (100 ng/ml)—produced by Silke lab, WEHI • Compound A (500 nM)—Smac mimetic, Tetralogic • Q-VD-OPh (10 μM)—MP Biomedicals
Analysis: • Cells treated with PI staining (1 μg/ml) and analysed by flow cytometry
TNF; S: Smac mimetic; Q: Q-VD-OPh): TSQ treatment ensures that cells specifically undergo necroptotic cell death. TNF activates the TNF receptor, Smac mimetic direct the signal away from proinflammatory signaling and toward the RIP1/RIP3-mediated cell death pathways, and Q-VD-OPh ensures that the apoptotic response is blocked leaving only the programmed necrosis response. The compounds' activity (solution in DMSO) tested in this TSQ-induced assay is evaluated by measuring their ability to block cell death as measured by flow cytometry after PI staining.

CN(c1ccc(NC(=O)Nc2ccc(OC(F)(F)F)cc2)cc1)c1ccnc(Nc2cccc(S(N)(=O)=O)c2)n1 [Compound 1, 3-((4-(methyl(4-(3-(4-(trifluoromethoxy)phenyl)ureido)phenyl)amino)pyrimidin-2-yl)amino)benzenesulfonamide]
Off target effect (% cell death) at 500 nM (U937 cells; compound at 500 nM): <20% | Off target effect (% cell death) at 1 uM (U937 cells; compound at 1 uM): <20% | Off target effect (% cell death) at 5 uM (U937 cells; compound at 5 uM): 60% | Off target effect (% cell death) at 10 uM (U937 cells; compound at 10 uM): 79% | competition with ATP and ADP for binding (STD NMR) [1]: can compete with (i) ATP and (ii) ADP | IC50 (wild type U937 cells; U-937, 48 h, read-out: IC50, rescue from TSQ-induced necroptosis): 50 to 100 nM | IC50 (wild type U937 cells; U-937, read-out: Inhibition of necroptosis (IC50)): 50 to 100 nM | cells rescued from TSQ-induced necroptosis (wild type U937 cells; wt U937 cells, 48 h): ~50% | MLKL translocation to the membrane fraction [2]: retarded translocation to the membrane fraction | IC50 ([3]; read-out: Cell based assay Average): 69.4 nM | IC50 ([3]; read-out: Cell based assay IC50): 25.4 nM
